Measured values taken from patent US10150762B2, “Trifluoromethyl alcohols as modulators of RORγt” (Janssen Pharmaceutica NV, priority 2014, dated 2018).
Read-outs that look alike come from different tables or passages of the source. Marks after values point to notes of the source that are not given here.

How the values were obtained:
[1] = target: wild type human RORγt ligand binding domain (RORγt LBD) (Homo sapiens (Human), UniProt P51449); conditions: read-out: ThermoFluor® Assay, Kd
Experimental: This approach is applicable to a wide variety of systems, and rigorous in theoretical interpretation through quantitation of equilibrium binding constants (KD).
The shift in the melting point described as a ΔTm is proportional to the concentration and affinity of the ligand.
RORγt ThermoFluor® Assay Construct
ThermoFluor® experiments were carried out using instruments owned by Janssen Research and Discovery, L.L.C. through its acquisition of 3-Dimensional Pharmaceuticals, Inc. 1,8-ANS (Invitrogen) was used as a fluorescent dye. Protein and compound solutions are dispensed into black 384-well polypropylene PCR microplates (Abgene) and overlayed with silicone oil (1 μL, Fluka, type DC 200) to prevent evaporation.
Fluorescence was measured by continuous illumination with UV light (Hamamatsu LC6) supplied via fiber optic and filtered through a band-pass filter (380-400 nm; >6 OD cutoff). Fluorescence emission of the entire 384-well plate was detected by measuring light intensity using a CCD camera (Sensys, Roper Scientific) filtered to detect 500±25 nm, resulting in simultaneous and independent readings of all 384 wells. Images were collected at each temperature, and the sum of the pixel intensity in a given area of the assay plate was recorded versus temperature. Reference wells contained RORγt without compounds, and the assay conditions were as follows: • 0.065 mg/mL RORγt • 60 μM 1,8-ANS • 100 mM Hepes, pH 7.0 • 10 mM NaCl • 2.5 mM GSH • 0.002% Tween-20

full-length human RORγt [2] = target: T1, full-length human RORγt (Homo sapiens (Human), UniProt P51449); format: cell-based; conditions: for IC50: HEK293T cells, Conditions A, read-out: RORγt (FL) Reporter Assay A, IC50
T1 sequence (P51449 other isoform, or with tags, fused parts or gaps): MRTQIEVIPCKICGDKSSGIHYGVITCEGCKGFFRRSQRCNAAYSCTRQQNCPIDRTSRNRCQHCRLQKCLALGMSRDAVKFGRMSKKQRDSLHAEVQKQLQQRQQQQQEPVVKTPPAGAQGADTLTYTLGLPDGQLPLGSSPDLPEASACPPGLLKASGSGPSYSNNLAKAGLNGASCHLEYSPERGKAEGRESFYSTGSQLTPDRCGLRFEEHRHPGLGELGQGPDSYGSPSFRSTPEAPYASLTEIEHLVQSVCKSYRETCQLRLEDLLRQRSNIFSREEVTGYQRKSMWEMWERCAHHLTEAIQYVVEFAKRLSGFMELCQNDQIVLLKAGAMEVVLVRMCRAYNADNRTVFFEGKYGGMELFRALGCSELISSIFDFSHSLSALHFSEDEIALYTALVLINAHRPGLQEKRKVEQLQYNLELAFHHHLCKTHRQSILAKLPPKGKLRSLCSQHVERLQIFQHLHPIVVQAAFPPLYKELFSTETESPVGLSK
Experimental: (§1) RORγt (full-length human) Reporter Assay:
Luminescence was measured using a BMG LUMIstar OPTIMA plate reader, after addition of 75 μL/well firefly luciferase buffer, followed by 75 μL/well Renilla luciferase buffer.

[3] = tested on: IL-17 production by CD4 T cells; assay: Human Th17 Assay; format: cell-based; conditions: 72 h, read-out: Human Th17 Assay, IC50
Text: Human Th17 Assay The human Th17 assay tests the effect of RORγt modulatory compounds on IL-17 production by CD4 T cells under conditions which favor Th17 differentiation. Total CD4+ T cells were isolated from the peripheral blood mononuclear cells (PBMC) of healthy donors using a CD4+ T cell isolation kit II, following the manufacturer's instructions (Miltenyi Biotec). […] The final concentrations of antibodies and cytokines (R&D Systems) in differentiation medium were: 3×10^6/mL anti-CD3/CD28 beads (prepared using human T cell activation/expansion kit, Miltenyi Biotec), 10 μg/mL anti-IL4, 10 μg/mL anti-IFNγ, 10 ng/mL IL113, 10 ng/mL IL23, 50 ng/mL IL6, 3 ng/mL TGFβ and 20 U/mL IL2. Cells were cultured at 37° C. and 5% CO2 for 3 days. Supernatants were collected and the accumulated IL-17 in culture was measured by using MULTI-SPOT® Cytokine Plate following manufacture's instruction (Meso Scale Discovery). The plate was read using Sector Imager 6000, and IL-17 concentration was extrapolated from the standard curve. The IC50s were determined by GraphPad.

full-length human RORγt [4] = target: T1, full-length human RORγt; conditions: for IC50: read-out: RORγt (FL) Reporter Assay B or C, IC50, HEK293T cells, Conditions B or C
Text: as §1
All three provide similar data and can be used interchangeably.

[5] = *** 0.67 μM compound concentration

Sequence of wild type human RORγt ligand binding domain (RORγt LBD) (P51449 other isoform, or with tags, fused parts or gaps): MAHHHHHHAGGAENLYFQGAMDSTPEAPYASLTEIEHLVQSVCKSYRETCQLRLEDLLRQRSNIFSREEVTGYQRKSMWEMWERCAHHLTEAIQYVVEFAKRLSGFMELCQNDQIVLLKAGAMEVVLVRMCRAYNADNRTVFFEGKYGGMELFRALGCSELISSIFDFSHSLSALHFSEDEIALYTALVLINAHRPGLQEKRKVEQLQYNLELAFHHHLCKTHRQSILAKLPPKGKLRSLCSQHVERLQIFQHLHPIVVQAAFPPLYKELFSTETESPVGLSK

Row | SMILES | Kd [1] [nM] | RORγt (FL) Reporter Assay A, % inhibition (full-length human RORγt [2]; ** 2 μM compound concentration) | IC50 (full-length human RORγt [2]) [nM] | other results
1 | C[C@H]1C[C@@H](F)CCN1C(=O)c1nc(C(=O)NCC(C)(C)O)sc1-c1ccc(C(O)(C(F)(F)F)C(F)(F)F)c(Cl)c1Cl [Example 2/1, 5-(2,3-Dichloro-4-(1,1,1,3,3,3-hexafluoro-2-hydroxypropan-2-yl)phenyl)-4-((2S,4S)-4-fluoro-2-methylpiperidine-1-carbonyl)-N-(2-hydroxy-2-methylpropyl)thiazole-2-carboxamide] | 0.16 | 103** % | 14 | 
2 | C[C@H]1CC(F)(F)CN1C(=O)c1nc(C(=O)NCC(C)(C)O)sc1-c1ccc(C(O)(C(F)(F)F)C(F)(F)F)c(Cl)c1Cl [Example 2/2, (S)-5-(2,3-Dichloro-4-(1,1,1,3,3,3-hexafluoro-2-hydroxypropan-2-yl)phenyl)-4-(4,4-difluoro-2-methylpyrrolidine-1-carbonyl)-N-(2-hydroxy-2-methylpropyl)thiazole-2-carboxamide] | 0.22 |  | 10 | RORγt (FL) Reporter Assay A, % inhibition (full-length human RORγt [2]; [5]): 101*** %
3 | C[C@H]1CCCN1C(=O)c1nc(C(=O)NCC(C)(C)O)sc1-c1ccc(C(O)(C(F)(F)F)C(F)(F)F)c(Cl)c1Cl [Example 2/8, (S)-5-(2,3-Dichloro-4-(1,1,1,3,3,3-hexafluoro-2-hydroxypropan-2-yl)phenyl)-N-(2-hydroxy-2-methylpropyl)-4-(2-methylpyrrolidine-1-carbonyl)thiazole-2-carboxamide] |  | 103** % |  | IC50 [3]: 17 nM; RORγt (FL) Reporter Assay B or C, % inhibition (full-length human RORγt [4]; ** 2 μM compound concentration): 108** %
4 | CC(C)(O)CNC(=O)c1nc(C(=O)N2CCC(F)CC2)c(-c2ccc(C(O)(C(F)(F)F)C(F)(F)F)c(Cl)c2Cl)s1 [Example 2/10, 5-(2,3-Dichloro-4-(1,1,1,3,3,3-hexafluoro-2-hydroxypropan-2-yl)phenyl)-4-(4-fluoropiperidine-1-carbonyl)-N-(2-hydroxy-2-methylpropyl)thiazole-2-carboxamide] | 13 | 105** % | 25 | 
5 | CN(C(=O)c1nc(C(=O)NCC(C)(C)O)sc1-c1ccc(C(O)(C(F)(F)F)C(F)(F)F)c(Cl)c1Cl)C1CCC1 [Example 2/13, N^4—Cyclobutyl-5-(2,3-dichloro-4-(1,1,1,3,3,3-hexafluoro-2-hydroxypropan-2-yl)phenyl)-N^Z-(2-hydroxy-2-methylpropyl)-N^4-methylthiazole-2,4-dicarboxamide] | 0.43 |  | 10 | RORγt (FL) Reporter Assay A, % inhibition (full-length human RORγt [2]; [5]): 103*** %
6 | CCN(C(=O)c1nc(C(=O)NCC(C)(C)O)sc1-c1ccc(C(O)(C(F)(F)F)C(F)(F)F)c(Cl)c1Cl)C1CCC1 [Example 2/15, N^4—Cyclobutyl-5-(2,3-dichloro-4-(1,1,1,3,3,3-hexafluoro-2-hydroxypropan-2-yl)phenyl)-N^4-ethyl-N2-(2-hydroxy-2-methylpropyl)thiazole-2,4-dicarboxamide] | 0.18 |  | 5 | RORγt (FL) Reporter Assay A, % inhibition (full-length human RORγt [2]; [5]): 106*** %
7 | C[C@@H]1CCCN1C(=O)c1nc(C(=O)NCC(C)(C)O)sc1-c1ccc(C(O)(C(F)(F)F)C(F)(F)F)c(Cl)c1Cl [Example 2/16, (R)-5-(2,3-dichloro-4-(1,1,1,3,3,3-hexafluoro-2-hydroxypropan-2-yl)phenyl)-N-(2-hydroxy-2-methylpropyl)-4-(2-methylpyrrolidine-1-carbonyl)thiazole-2-carboxamide] |  | 86** % |  | 
8 | CCN(CC)C(=O)c1nc(C(=O)N2C[C@H](O)C[C@H](O)C2)sc1-c1ccc(C(O)(C(F)(F)F)C(F)(F)F)c(Cl)c1Cl [Example 3/4] | 10 | 100** % | 14 | 
9 | O=C(NC1CS(=O)(=O)C1)c1nc(C(=O)N2CCC(F)CC2)c(-c2ccc(C(O)(C(F)(F)F)C(F)(F)F)c(Cl)c2Cl)s1 [Example 6/1, 5-(2,3-Dichloro-4-(1,1,1,3,3,3-hexafluoro-2-hydroxypropan-2-yl)phenyl)-N-(1,1-dioxidothietan-3-yl)-4-(4-fluoropiperidine-1-carbonyl)thiazole-2-carboxamide] |  |  |  | IC50 [3]: 42 nM
10 | C[C@H]1CC(F)(F)CN1C(=O)c1nc(C(=O)N2C[C@H](O)C[C@H](O)C2)sc1-c1ccc(C(O)(C(F)(F)F)C(F)(F)F)cc1C(F)(F)F [Example 9/1, ((S)-4,4-Difluoro-2-methylpyrrolidin-1-yl)(2-((3R,5S)-3,5-dihydroxypiperidine-1-carbonyl)-5-(4-(1,1,1,3,3,3-hexafluoro-2-hydroxypropan-2-yl)-2-(trifluoromethyl)phenyl)thiazol-4-yl)methanone] |  |  |  | IC50 [3]: 13 nM
11 | C[C@H]1CCCN1C(=O)c1nc(C(=O)NCC(C)(C)O)sc1-c1ccc(C(O)(C(F)(F)F)C(F)(F)F)cc1C(F)F [Example 15, (S)-5-(2-(Difluoromethyl)-4-(1,1,1,3-hexafluoro-2-hydroxypropan-2-yl)phenyl)-N-(2-hydroxy-2-methylpropyl)-4-(2-methylpyrrolidine-1-carbonyl)thiazole-2-carboxamide] |  |  |  | IC50 [3]: 47 nM
12 | C[C@H]1CCCN1C(=O)c1nc(C(=O)NCC(C)(C)O)sc1-c1ccc(C(O)(C(F)(F)F)C(F)(F)F)cc1Cl [Example 15/10, (S)-5-(2-Chloro-4-(1,1,1,3,3,3-hexafluoro-2-hydroxypropan-2-yl)phenyl)-N-(2-hydroxy-2-methylpropyl)-4-(2-methylpyrrolidine-1-carbonyl)thiazole-2-carboxamide] | 0.26 |  |  | RORγt (FL) Reporter Assay B or C, % inhibition (full-length human RORγt [4]; * 3 μM compound concentration): 97* %; IC50 (full-length human RORγt [4]): 7.9 nM
13 | Cc1cc(C(O)(C(F)(F)F)C(F)(F)F)ccc1-c1sc(C(=O)NCC(C)(C)O)nc1C(=O)N1CCC[C@@H]1C [Example 19, (S)-5-(4-(1,1,1,3,3,3-Hexafluoro-2-hydroxypropan-2-yl)-2-methylphenyl)-N-(2-hydroxy-2-methylpropyl)-4-(2-methylpyrrolidine-1-carbonyl)thiazole-2-carboxamide] |  |  |  | IC50 ([3]; IL-17 in supernatant, 3 days culture): 55 nM
14 | Cc1cc(C(O)(C(F)(F)F)C(F)(F)F)ccc1-c1sc(C(=O)NCC(C)(C)O)nc1C(=O)N1CCCC[C@@H]1C [Example 21/2, (S)-5-(4-(1,1,1,3,3,3-Hexafluoro-2-hydroxypropan-2-yl)-2-methylphenyl)-N-(2-hydroxy-2-methylpropyl)-4-(2-methylpiperidine-1-carbonyl)thiazole-2-carboxamide] | 0.21 |  |  | RORγt (FL) Reporter Assay B or C, % inhibition (full-length human RORγt [4]; * 3 μM compound concentration): 101* %; IC50 (full-length human RORγt [4]): 3.9 nM
